Source: patent publication US9363996B2, “Compositions and method for blocking ethylene response in field crops using 3-(cy-clopropyl-l-enyl)-propanoic salt” (Yissum Research Development Company of the Hebrew …, priority 2009, dated 2016)

Key:
tobacco seedlings = experiment: Ethylene-induced chlorophyll degradation in tobacco seedling leaves; type: in vivo, tobacco (Nicotiana tabacum var. 'Samsun')
Experimental: (1) Abscission—This is a very sensitive model system for studying the effects of plant hormones. Ethylene induces the process of abscission, while auxin delays it. In the laboratory the experimental system is based on plant organ explants, which include the abscission zone. Abscission is induced by exposure to ethylene and at the termination of the experiment the number of abscised organs, usually either leaf blades or petioles are counted and the fraction of abscission is calculated. In the case of fruit, the decrease in fruit retention force is analyzed. In cotton, when WS-CPD (the ethylene-action antagonist herein disclosed) is tested, the whole plants or explants are pretreated by spraying with the antagonist, dissolved in a phosphate buffer solution (10-20 mM, pH 7.0) including 0.1% commercially available Kinetic™ as surfactant, and left to incubate for a predetermined time, usually between 6 and 24 h. The plants or explants are then further exposed for 24 h to ethylene gas (5 to 20 μL L^−1). The plants or explants are then ventilated and incubated for the required time under controlled conditions. At the end of the experiment the percentage of abscission is determined. (2) Chlorophyll degradation—This is a standard model for studying senescence. Plant material (whole plants, excised leaves or leaf discs) are pretreated. In cotton, tobacco and wheat, when WS-CPD is tested, the whole plants or explants are pretreated by spraying with the antagonist, dissolved in phosphate buffer solution (10-20 mM, pH 7.0) including 0.1% commercially available Kinetic™ surfactant, and left to incubate for a predetermined time, usually between 6 and 241. The plants or explants are then further exposed for 24 h to ethylene gas (1 to 100 μL L^−1), or sprayed with Ethephon™ (wheat; 250 to 750 μL L^−1). The plants or explants are then ventilated and incubated for the required time under controlled conditions. At the end of the experiment a dimethylsulfoxide (DMSO) extract of the plant tissue is prepared, and the chlorophyll content of the extract is determined by spectrophotometric analysis. The chlorophyll content is reported either on a fresh, dry weight basis, or on a surface area basis. (3) Epinasty—This is also one of the classical methods for studying ethylene effects in plants. The extent of ethylene-induced epinasty of leaves is determined by measuring the change of the angle between the petiole and the stem shoot or blade. After exposure of the intact plant to ethylene, the upright grown leaves bend downward. The increase in the angle values (degrees) between petiole and the stem is used as a measure of the effect of the ethylene. […]

wheat plants = experiment: Ethephon-induced flag leaf epinasty of wheat plants after spike heading; type: in vivo, wheat (Triticum turgidum var. 'Gdera'); settings: WS-CPD 135 and 415 μg mL^−1 pretreatment; Ethephon 750 μL L^−1
Experimental: (1) Abscission—This is a very sensitive model system for studying the effects of plant hormones. Ethylene induces the process of abscission, while auxin delays it. In the laboratory the experimental system is based on plant organ explants, which include the abscission zone. Abscission is induced by exposure to ethylene and at the termination of the experiment the number of abscised organs, usually either leaf blades or petioles are counted and the fraction of abscission is calculated. In the case of fruit, the decrease in fruit retention force is analyzed. In cotton, when WS-CPD (the ethylene-action antagonist herein disclosed) is tested, the whole plants or explants are pretreated by spraying with the antagonist, dissolved in a phosphate buffer solution (10-20 mM, pH 7.0) including 0.1% commercially available Kinetic™ as surfactant, and left to incubate for a predetermined time, usually between 6 and 24 h. […] At the end of the experiment the percentage of abscission is determined. […] At the end of the experiment a dimethylsulfoxide (DMSO) extract of the plant tissue is prepared, and the chlorophyll content of the extract is determined by spectrophotometric analysis. […] The extent of ethylene-induced epinasty of leaves is determined by measuring the change of the angle between the petiole and the stem shoot or blade. […]

SMILES: O=C([O-])CCC1=CC1.[Na+] [WS-CPD, 3-cyclopropyl-1-enyl-propanoic sodium salt]
- ethylene-induced chlorophyll degradation (tobacco seedlings; WS-CPD 14 μg mL^−1 pretreatment spray, young and mature leaves): completely reversed
- ethylene-induced chlorophyll degradation (tobacco seedlings; higher concentrations of WS-CPD): less effective
- Ethephon-induced flag leaf epinasty (wheat plants): partly protected
